In patent publication US20240190916A1, “NOVEL PEPTIDE” (HYSENSBIO, priority 2022, published 2024):

Columns and labels:
Type in all cases: cell-based
BSP gene = experiment: BSP mRNA level by real-time PCR in human-derived mesenchymal stem cells; conditions: compared to untreated control
Experimental: (§1) It was cultured at 37° C. in humid air containing 5% CO2 and used for the experiment. Human mesenchymal stem cells (hBMSCs) were purchased from Lonza (LONZA, Switzerland) and used. hBMSCs were cultured in a-MEM (Invitrogen) medium supplemented with 10% heat-inactivated bovine serum.
(§2) Total RNA of human dental pulp cells and mesenchymal stem cells was isolated using a TRIzol reagent. cDNA was synthesized using 2 μg of total RNA, 1 μl of reverse transcriptase, and 0.5 μg of oligo (dT). The synthesized cDNA was used for real-time polymerase chain reaction. The real-time polymerase chain reaction was performed in ABI PRISM 7500 sequence detection system (Applied Biosystems) using SYBR GREEN PCR Master Mix (Takara, Japan). The real-time polymerase chain reaction was performed at 94° C., 1 min; 95° C., 15 sec-60° C., 34 sec was performed under the condition of repeating 40 cycles. An analysis of the results was evaluated using a comparative cycle threshold (CT) method, and primer base sequences are listed in Table 9.
(§3) BSP and DMP1 genes are used as markers for differentiation of osteoblasts and cementoblasts, and are known as important genes for calcification of a bone and cementum. The effects of each group of peptides on BSP and DMP1 mRNA expression were confirmed by a real-time PCR (Tables 11 and 12).

DSPP gene = experiment: DSPP mRNA level by real-time PCR in human dental pulp cells; conditions: peptide 10 ug/ml, compared to untreated control
Experimental: Human pulp tissue cells were isolated from wisdom teeth of 10 adults (18-22 years old) at Seoul National University Dental Hospital. Specifically, all experiments were performed with the patient's consent after approval from the hospital's Institutional Review Board, and wisdom teeth are cut according to a method of Jung H S et al (J Mol Histol. (2011)), exposing the pulp and isolating the pulp with forceps. The isolated pulp was minced on both sides, placed in a 60 mm dish, covered with a cover slip, and then cultured in Dulbecco's Modified Eagle medium. It is known that human dental pulp cells can differentiate into odontoblasts, osteoblasts, cementoblasts and periodontal ligament cells under various conditions (Tissue Eng Part A. 2014 April; 20(7-8): 1342-51).
as §2
The effect of each group of peptides on DSPP mRNA expression was confirmed by real-time PCR (Table 10).

DMP1 gene = experiment: DMP1 mRNA level by real-time PCR in human-derived mesenchymal stem cells; conditions: compared to untreated control
Experimental: as §1, §2, §3

Sequence | mRNA level of BSP gene, BSP gene expression, Average (BSP gene) [fold] | mRNA level of DSPP gene, Average (DSPP gene) [fold] | mRNA level of DMP1 gene, DMP1 gene expression, Average (DMP1 gene) [fold]
KYAKKKKNYK [SEQ ID NO: 33] | 2.092 | 1.813 | 7.709
KYAKKKKSYK [SEQ ID NO: 41] | 1.762 | 1.897 | 7.727
KYAKKKRNYK [SEQ ID NO: 34] | 2.136 | 2.361 | 7.031
KYAKKKRSYK [SEQ ID NO: 42] | 1.882 | 1.811 | 7.367
KYAKKRKNYK [SEQ ID NO: 35] | 2.372 | 1.572 | 7.527
KYAKKRKSYK [SEQ ID NO: 43] | 2.011 | 1.620 | 6.791
KYAKKRRNYK [SEQ ID NO: 37] | 1.999 | 1.67 | 7.032
KYAKKRRSYK [SEQ ID NO: 45] | 1.878 | 2.125 | 7.309
KYAKRKKNYK [SEQ ID NO: 36] | 2.207 | 1.702 | 6.999
KYAKRKKSYK [SEQ ID NO: 44] | 1.699 | 2.121 | 7.663
KYAKRKRNYK [SEQ ID NO: 40] | 2.102 | 2.121 | 7.635
KYAKRKRSYK [SEQ ID NO: 48] | 1.773 | 2.516 | 6.757
KYAKRRKNYK [SEQ ID NO: 38] | 2.507 | 1.705 | 7.777
KYAKRRKSYK [SEQ ID NO: 46] | 1.863 | 1.836 | 7.294
KYAKRRRNYK [SEQ ID NO: 39] | 2.293 | 2.015 | 6.989
KYAKRRRSYK [SEQ ID NO: 47] | 2.063 | 1.620 | 7.107
KYARKKKNYK [SEQ ID NO: 49] | 1.971 | 1.798 | 6.789
KYARKKKSYK [SEQ ID NO: 57] | 1.679 | 1.886 | 6.059
KYARKKRNYK [SEQ ID NO: 50] | 1.901 | 1.661 | 6.109
KYARKKRSYK [SEQ ID NO: 58] | 1.811 | 1.811 | 5.999
KYARKRKNYK [SEQ ID NO: 51] | 1.899 | 2.572 | 5.272
KYARKRKSYK [SEQ ID NO: 59] | 1.629 | 2.120 | 5.510
KYARKRRNYK [SEQ ID NO: 53] | 2.036 | 2.037 | 6.483

Sequence | mRNA level of BSP gene, BSP gene expression, Average (BSP gene) [fold] | mRNA level of DSPP gene, Average (DSPP gene) [fold] | mRNA level of DMP1 gene, DMP1 gene expression, Average (DMP1 gene) [fold]
KYARKRRSYK [SEQ ID NO: 61] | 1.832 | 1.525 | 5.787
KYARRKKNYK [SEQ ID NO: 52] | 1.999 | 2.102 | 5.991
KYARRKKSYK [SEQ ID NO: 60] | 1.991 | 2.195 | 5.078
KYARRKRNYK [SEQ ID NO: 56] | 2.016 | 2.021 | 5.798
KYARRKRSYK [SEQ ID NO: 64] | 2.021 | 1.606 | 6.123
KYARRRKNYK [SEQ ID NO: 54] | 2.1 | 2.005 | 6.531
KYARRRKSYK [SEQ ID NO: 62] | 1.769 | 1.836 | 5.333
KYARRRRNYK [SEQ ID NO: 55] | 1.773 | 1.921 | 6.111
KYARRRRSYK [SEQ ID NO: 63] | 2.237 | 2.120 | 5.727
KYKAKKKSYK [SEQ ID NO: 9] | 2.084 | 3.057 | 9.869
KYKAKKRNYK [SEQ ID NO: 2] | 2.713 | 7.361 | 10.361
KYKAKKRSYK [SEQ ID NO: 10] | 1.998 | 3.811 | 9.998
KYKAKRKNYK [SEQ ID NO: 3] | 2.715 | 8.572 | 11.271
KYKAKRKSYK [SEQ ID NO: 11] | 2.226 | 3.362 | 8.795
KYKAKRRNYK [SEQ ID NO: 5] | 2.77 | 6.67 | 11.001
KYKAKRRSYK [SEQ ID NO: 13] | 2.637 | 2.535 | 9.237
KYKARKKNYK [SEQ ID NO: 4] | 2.307 | 9.702 | 9.720
KYKARKKSYK [SEQ ID NO: 12] | 1.918 | 2.911 | 7.997
KYKARKRNYK [SEQ ID NO: 8] | 2.617 | 7.021 | 11.120
KYKARKRSYK [SEQ ID NO: 16] | 2.307 | 2.906 | 10.014
KYKARRKNYK [SEQ ID NO: 6] | 2.935 | 7.705 | 9.897
KYKARRKSYK [SEQ ID NO: 14] | 1.729 | 2.136 | 9.407
KYKARRRNYK [SEQ ID NO: 7] | 2.548 | 8.215 | 10.236
